Reference: US8410106B2, “Hydrazine-substituted anthranilic acid derivatives” (Bayer Cropscience AG, priority 2010, dated 2013)
Where two headings read alike, the source gives them in different places.

Experiments:
[1] = logP determination by HPLC on reversed-phase columns (C 18), EEC Directive 79/831 Annex V.A8; type: physicochemical
[2] = test system: green peach aphid (Myzus persicae); test: Myzus test (MYZUPE spray treatment); type: in vivo; details: foliar, 144 h, read-out: activity (aphids killed)
Description: After 6 days the activity is determined, in %.

[3] = test system: caterpillars of the army worm (Spodoptera frugiperda); test: Spodoptera frugiperda test (SPODFR spray treatment); type: in vivo; details: foliar, 168 h, read-out: activity (caterpillars killed)
[4] = test system: larvae of the mustard beetle (Phaedon cochleariae); test: Phaedon test (PHAECO spray treatment); details: in Brassica rapa, foliar, 168 h, read-out: activity (beetle larvae killed)
[5] = HPLC, reversed-phase C 18, table value without method mark, read-out: logP
[6] = application rate 100 g/ha, after 6 days, Chinese cabbage leaf discs, spray
[7] = application rate 100 g/ha, after 7 days, maize leaf discs, spray

Compound	chromatographic logP [1]	pest or weed control at 100 g/ha ([2]; in Brassica rapa) [%]	pest or weed control at 100 g/ha ([3]; in Zea mays) [%]	pest or weed control at 100 g/ha [4] [%]	chromatographic logP [1, 5]	pest or weed control at 100 g/ha [2, 6] [%]	pest or weed control at 100 g/ha [3, 7] [%]
COC(=O)N(C)NC(=O)c1cc(Cl)cc(Cl)c1NC(=O)c1cc(Cn2nnc(C(F)(F)C(F)(F)F)n2)nn1-c1ncccc1Cl [Example 25]	3.32	100	100	100	–	–	–
COC(=O)N(C)NC(=O)c1cc(Cl)cc(C)c1NC(=O)c1cc(Cn2nnc(C(F)F)n2)nn1-c1ncccc1Cl [Example 26]	2.49	100	100	100	–	–	–
COC(=O)N(C)NC(=O)c1cc(Br)cc(C)c1NC(=O)c1cc(Cn2nnc(C(F)F)n2)nn1-c1ncccc1Cl [Example 27]	2.58	100	100	100	–	–	–
COC(=O)N(C)NC(=O)c1cc(Cl)cc(Cl)c1NC(=O)c1cc(Cn2nnnc2C(F)F)nn1-c1ncccc1Cl [Example 28]	2.27	100	100	100	–	–	–
COC(=O)N(C)NC(=O)c1cc(C#N)cc(C)c1NC(=O)c1cc(Cn2ncc(C(F)(F)F)n2)nn1-c1ncccc1Cl [Example 29]	2.62	100	100	100	–	–	–
COC(=O)N(C)NC(=O)c1cc(Cl)cc(C)c1NC(=O)c1cc(Cn2ncc(C(F)(F)F)n2)nn1-c1ncccc1Cl [Example 30]	2.94	100	100	100	–	–	–
COC(=O)N(C)NC(=O)c1cc(Cl)cc(Cl)c1NC(=O)c1cc(Cn2ncc(C(F)(F)F)n2)nn1-c1ncccc1Cl [Example 31]	2.94	100	100	100	–	–	–
COC(=O)N(C)NC(=O)c1cc(I)cc(C)c1NC(=O)c1cc(Cn2ncc(C(F)(F)F)n2)nn1-c1ncccc1Cl [Example 32]	2.81	90	100	100	–	–	–
COC(=O)N(C)NC(=O)c1cc(Cl)cc(C)c1NC(=O)c1cc(Cn2cc(C(F)(F)F)nn2)nn1-c1ncccc1Cl [Example 33]	2.61	100	100	100	–	–	–
COC(=O)N(C)NC(=O)c1cc(Cl)cc(Cl)c1NC(=O)c1cc(Cn2cc(C(F)(F)F)nn2)nn1-c1ncccc1Cl [Example 34]	2.61	100	100	100	–	–	–
COC(=O)N(C)NC(=O)c1cc(I)cc(C)c1NC(=O)c1cc(Cn2cc(C(F)(F)F)nn2)nn1-c1ncccc1Cl [Example 35]	3.14	100	100	100	–	–	–
COC(=O)N(C)NC(=O)c1cc(Cl)cc(Cl)c1NC(=O)c1cc(Cn2cnc(C(F)(F)F)c2C(F)(F)F)nn1-c1ncccc1Cl [Example 36]	–	–	–	100	3.1	100	100
COC(=O)N(C)NC(=O)c1cc(Cl)cc(C)c1NC(=O)c1cc(Cn2cc(C3CC3)nn2)nn1-c1ncccc1Cl [Example 37]	2.18	100	100	100	–	–	–
COC(=O)NNC(=O)c1cc(Cl)cc(C)c1NC(=O)c1cc(Cn2cc(C3CC3)nn2)nn1-c1ncccc1Cl [Example 38]	2.02	100	100	100	–	–	–
COC(=O)N(C)N(C)C(=O)c1cc(Cl)cc(C)c1NC(=O)c1cc(Cn2cc(-c3ccc(Cl)cc3)nn2)nn1-c1ncccc1Cl [Example 41]	–	–	–	100	3.49	100	100
COC(=O)N(C)NC(=O)c1cc(Cl)cc(Cl)c1NC(=O)c1cc(Cn2nc(C(F)F)cc2C(F)F)nn1-c1ncccc1Cl [Example 42]	2.9	100	100	100	–	–	–
COC(=O)N(C)NC(=O)c1cc(C#N)cc(C)c1NC(=O)c1cc(Cn2nnc(C(F)F)n2)nn1-c1ncccc1Cl [Example 45]	2.15	100	100	100	–	–	–
COC(=O)N(C)NC(=O)c1cc(Cl)cc(C)c1NC(=O)c1cc(Cn2nnnc2C(F)F)nn1-c1ncccc1Cl [Example 46]	2.25	100	100	100	–	–	–
COC(=O)N(C)NC(=O)c1cc(C#N)cc(C)c1NC(=O)c1cc(Cn2cc(C(F)(F)F)nn2)nn1-c1ncccc1Cl [Example 47]	2.3	90	100	100	–	–	–
COC(=O)N(C)NC(=O)c1cc(Cl)cc(C)c1NC(=O)c1cc(Cn2cnc(C(F)(F)F)c2C(F)(F)F)nn1-c1ncccc1Cl [Example 48]	–	–	–	100	3.08	100	100
COC(=O)N(C)NC(=O)c1cc(I)cc(C)c1NC(=O)c1cc(Cn2cnc(C(F)(F)F)c2C(F)(F)F)nn1-c1ncccc1Cl [Example 49]	–	–	–	100	3.26	100	100
COC(=O)N(C)NC(=O)c1cc(Cl)cc(C)c1NC(=O)c1cc(Cn2nc(C(F)F)cc2C(F)F)nn1-c1ncccc1Cl [Example 50]	2.91	100	100	100	–	–	–
COC(=O)N(C)NC(=O)c1cc(I)cc(C)c1NC(=O)c1cc(Cn2nnc(C(F)(F)F)n2)nn1-c1ncccc1Cl [Example 51]	3.15	100	100	100	–	–	–
COC(=O)N(C)NC(=O)c1cc(Cl)cc(C)c1NC(=O)c1cc(Cn2nnc(C(F)(F)C(F)(F)F)n2)nn1-c1ncccc1Cl [Example 52]	3.32	100	100	100	–	–	–
COC(=O)N(C)NC(=O)c1cc(Br)cc(C)c1NC(=O)c1cc(Cn2nnc(C(F)(F)C(F)(F)F)n2)nn1-c1ncccc1Cl [Example 53]	3.4	100	100	100	–	–	–
COC(=O)NNC(=O)c1cc(Cl)cc(C)c1NC(=O)c1cc(Cn2nnc(C(F)(F)C(F)(F)C(F)(F)F)n2)nn1-c1ncccc1Cl [Example 54]	–	90	100	100	3.41	–	–
